Data as given in patent US20230100838A1 (Revolution Medicines, Inc., priority 2019, published 2023).

What was measured:
Format in all cases: binding
[1] = biological target: T1, GDP-loaded K-Ras (1-169) G12D, C51S, C80L, C118S (Homo sapiens, UniProt P01116, C118S/C51S/C80L/G12D); assay: K-Ras G12D(GDP) cross-linking assay (conjugate formation, TOF mass spectrometry); design: key: 0: No observed x-linking; +: 0 < x ≤ 20; ++: 20 < x ≤ 40; +++: 40 < x ≤ 100; settings: percent covalently modified K-Ras by MS, room temperature, typical compound conc. 2, 10, 25 μM, endpoints 1 and 24 h
T1 construct: GDP-loaded K-Ras (1-169) G12D, C51S, C80L, C118S
How it was run: (§1)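 5 μM protein (final, from 50 μM) in HEPES/NaCl/MgCl2 buffer pH 7.4 with compound typically at 2, 10 and 25 μM, room temperature, 1 and 24 h endpoints; formic acid quench. Intact-protein LC–TOF MS; percent modification is covalent adduct peak height over total K-Ras peak height.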

[2] = biological target: T2, GDP-loaded K-Ras (1-169) C51S, C80L, C118S (Homo sapiens, UniProt P01116, C118S/C51S/C80L); assay: K-Ras WT (GDP) cross-linking assay (conjugate formation, TOF mass spectrometry); design: key: 0: No observed x-linking; +: 0 < x ≤ 20; ++: 20 < x ≤ 40; +++: 40 < x ≤ 100; settings: percent covalently modified K-Ras by MS, room temperature, typical compound conc. 2, 10, 25 μM, endpoints 1 and 24 h
T2 construct: GDP-loaded K-Ras (1-169) C51S, C80L, C118S
How it was run: as §1

K-Ras G12S = K-Ras G12S (Homo sapiens, UniProt P01116, G12S); assay: K-Ras G12S cross-linking assay (comparable procedure, conjugate formation, TOF mass spectrometry); design: key: 0: No observed x-linking
How it was run: as §1

[3] = Table 4, percent covalently modified K-Ras by MS
[4] = Table 5, percent covalently modified K-Ras by MS

Compound | G12D x-linking (%) ([1]; Table 4) | WT x-linking (%) ([2]; Table 4) | G12S x-linking (%) (K-Ras G12S; [3]) | G12D x-linking (%) ([1]; Table 5) | WT x-linking (%) ([2]; Table 5) | G12S x-linking (%) (K-Ras G12S; [4])
Cc1cccc2cccc(N3CCc4c(nc(OC[C@@H]5CCCN5C)nc4N4CCC(N(C)C(=O)C5CN5)CC4)C3)c12 (stereo partly drawn) [Example 42, N-methyl-(1-(7-(8-methylnaphthalen-1-yl)-2-(((S)-1-methylpyrrolidin-2-yl)methoxy)-5,6,7,8-tetrahydropyrido[3,4-d]pyrimidin-4-yl)piperidin-4-yl)aziridine-2-carboxamide] | + (0 < x ≤ 20) | + (0 < x ≤ 20) | + (0 < x ≤ 10) |  |  | 
COc1ccc(CN=C=NCCCN(C)c2nc(OC[C@@H]3CCCN3C)nc3c2CCN(c2cccc4cccc(C)c24)C3)cc1 [Example 33, N-(3-((((4-methoxybenzyl)imino)methylene)amino)propyl)-N-methyl-7-(8-methylnaphthalen-1-yl)-2-(((S)-1-methylpyrrolidin-2-yl)methoxy)-5,6,7,8-tetrahydropyrido[3,4-d]pyrimidin-4-amine] | +++ (40 < x ≤ 100) | ++ (20 < x ≤ 100) | ++ (10 < x ≤ 100) |  |  | 
COc1ccc(CN=C=NCCCN(C)c2nc(=O)n(-c3c(C)ccnc3C(C)C)c3nc(-c4ccccc4F)c(F)cc23)cc1 [Example 58] | + (0 < x ≤ 20) | + (0 < x ≤ 20) | ++ (10 < x ≤ 100) |  |  | 
Cc1cccc2cccc(N3CCc4c(nc(OC[C@@H]5CCCN5C)nc4N4CCN(C(=O)C5CN5)CC4)C3)c12 (stereo partly drawn) [Example 46, aziridin-2-yl(4-(7-(8-methylnaphthalen-1-yl)-2-(((S)-1-methylpyrrolidin-2-yl)methoxy)-5,6,7,8-tetrahydropyrido[3,4-d]pyrimidin-4-yl)piperazin-1-yl)methanone] | + (0 < x ≤ 20) | + (0 < x ≤ 20) | + (0 < x ≤ 10) |  |  | 
Cc1cccc2cccc(N3CCc4c(nc(OC[C@@H]5CCCN5C)nc4N4CCN(C(=O)[C@H]5CN5)[C@@H](CC#N)C4)C3)c12 [Example 63, 2-((S)-1-((R)-aziridine-2-carbonyl)-4-(7-(8-methylnaphthalen-1-yl)-2-(((S)-1-methylpyrrolidin-2-yl)methoxy)-5,6,7,8-tetrahydropyrido[3,4-d]pyrimidin-4-yl)piperazin-2-yl)acetonitrile] |  |  |  | ++ (20 < x ≤ 40) | + (0 < x ≤ 20) | + (0 < x ≤ 10)
CN=C=NC1CCN(c2nc(OC[C@@H]3CCCN3C)nc3c2CCN(c2cccc4cccc(C)c24)C3)CC1 [Example 21, N-methyl-N-(1-(7-(8-methylnaphthalen-1-yl)-2-(((S)-1-methylpyrrolidin-2-yl)methoxy)-5,6,7,8-tetrahydropyrido[3,4-d]pyrimidin-4-yl)piperidin-4-yl)methanediimine] | +++ (40 < x ≤ 100) | ++ (20 < x ≤ 100) | ++ (10 < x ≤ 100) |  |  | 
Cc1cccc2cccc(N3CCc4c(nc(OC[C@@H]5CCCN5C)nc4N4CCC(N=C=NCCN(C)c5ccncn5)CC4)C3)c12 [Example 92, N-methyl-N-(2-((((1-(7-(8-methylnaphthalen-1-yl)-2-(((S)-1-methylpyrrolidin-2-yl)methoxy)-5,6,7,8-tetrahydropyrido[3,4-d]pyrimidin-4-yl)piperidin-4-yl)imino)methylene)amino)ethyl)pyrimidin-4-amine] |  |  |  | +++ (40 < x ≤ 100) | ++ (20 < x ≤ 100) | ++ (10 < x ≤ 100)
Fc1ccccc1-c1c(Cl)cc2c(N3CCC(NC4=NCCO4)CC3)ncnc2c1F [Example 13, N-(1-(6-chloro-8-fluoro-7-(2-fluorophenyl)quinazolin-4-yl)piperidin-4-yl)-4,5-dihydrooxazol-2-amine] | + (0 < x ≤ 20) | + (0 < x ≤ 20) | + (0 < x ≤ 10) |  |  | 
O=C(C1CCN(c2ncnc3c(F)c(-c4ccccc4F)c(Cl)cc23)CC1)C(F)(F)F [Example 18, 1-(1-(6-chloro-8-fluoro-7-(2-fluorophenyl)quinazolin-4-yl)piperidin-4-yl)-2,2,2-trifluoroethan-1-one] | 0 | 0 | 0 |  |  | 
COCCN=C=NCCCN(C)c1nc(=O)n(-c2c(C)ccnc2C(C)C)c2nc(-c3ccccc3F)c(F)cc12 [Example 56] | ++ (20 < x ≤ 40) | ++ (20 < x ≤ 100) | ++ (10 < x ≤ 100) |  |  | 
Cc1cccc2cccc(N3CCc4c(nc(OC[C@@H]5CCCN5C)nc4N4CCC(B(O)O)CC4)C3)c12 [Example 52, (S)-(1-(7-(8-methylnaphthalen-1-yl)-2-((1-methylpyrrolidin-2-yl)methoxy)-5,6,7,8-tetrahydropyrido[3,4-d]pyrimidin-4-yl)piperidin-4-yl)boronic Acid] | + (0 < x ≤ 20) | + (0 < x ≤ 20) | + (0 < x ≤ 10) |  |  | 
